Test results from patent US11684607B2, “Secnidazole for use in the treatment of bacterial vaginosis” (priority 2014, dated 2023).
Where two headings read alike, the source gives them in different places.

Assay: Effect of a single 2 g dose of SYM-1219 on the plasma pharmacokinetics of EE2 and NET in healthy female subjects
Format: in vivo, human
Conditions: for AUC(0-t) / AUC(0-inf) / Cmax: female, human, plasma
Method: Methods: Fifty-four (54) healthy female subjects, ages 18-65, received EE2/NET alone and in combination, where SYM-1219+EE2/NET were co-administered on Day 1 (Group B1; N=27) or SYM-1219 on Day 1 and EE2/NET on Day 2 (Group B2; N=27). Serial blood samples were drawn to measure plasma concentrations of EE2/NET. […] Safety was evaluated by recording of adverse events, vital signs, ECGs and standard laboratory tests.

[1] = Group B1: Period 2 (EE2/NET followed by SYM-1219 2 grams on Day 1) vs Period 1 (EE2/NET alone)
[2] = Group B1: SYM-1219 2 g and EE2/NET co-administered on Day 1
[3] = Group B2: Period 2 (SYM-1219 2 grams on Day 1, EE2/NET on Day 2) vs Period 1 (EE2/NET alone)

- EE2 AUC0-t, Geometric LSMean % Ratio (100 * Test/Reference) [1]: 94.26%
- EE2 AUC0-∞, Geometric LSMean % Ratio (100 * Test/Reference) [1]: 105.37%
- EE2 Cmax, Geometric LSMean % Ratio (100 * Test/Reference) [1]: 71.07%
- EE2 Cmax reduction [2]: 29%
- change in EE2 AUC [2]: no change
- EE2 AUC0-t, Geometric LSMean % Ratio (100 * Test/Reference) [3]: 99.04%
- EE2 AUC0-∞, Geometric LSMean % Ratio (100 * Test/Reference) [3]: 93.32%
- EE2 Cmax, Geometric LSMean % Ratio (100 * Test/Reference) [3]: 104.96%
- EE2 PK alteration (Group B2: SYM-1219 2 g on Day 1, EE2/NET on Day 2): not altered
- AUC(0-t) (Group B1 Period 1: EE2/NET alone, read-out: EE2 AUC0-t, Geometric Least Squares (LS) Means): 0.627 ng·h/mL
- AUC(0-t) (Group B1 Period 1: EE2/NET alone, read-out: EE2 AUC0-t, Mean): 0.644 ng·h/mL
- AUC(0-inf) (Group B1 Period 1: EE2/NET alone, read-out: EE2 AUC0-∞, Geometric Least Squares (LS) Means): 0.878 ng·h/mL
- AUC(0-inf) (Group B1 Period 1: EE2/NET alone, read-out: EE2 AUC0-∞, Mean): 0.911 ng·h/mL
- Cmax (Group B1 Period 1: EE2/NET alone, read-out: EE2 Cmax, Geometric Least Squares (LS) Means): 0.0779 ng/mL
- Cmax (Group B1 Period 1: EE2/NET alone, read-out: EE2 Cmax, Mean): 0.0806 ng/mL
- AUC(0-t) (Group B1 Period 2: EE2/NET followed by SYM-1219 2 grams on Day 1, read-out: EE2 AUC0-t, Geometric Least Squares (LS) Means): 0.591 ng·h/mL
- AUC(0-t) (Group B1 Period 2: EE2/NET followed by SYM-1219 2 grams on Day 1, read-out: EE2 AUC0-t, Mean): 0.616 ng·h/mL
- AUC(0-inf) (Group B1 Period 2: EE2/NET followed by SYM-1219 2 grams on Day 1, read-out: EE2 AUC0-∞, Geometric Least Squares (LS) Means): 0.925 ng·h/mL
- AUC(0-inf) (Group B1 Period 2: EE2/NET followed by SYM-1219 2 grams on Day 1, read-out: EE2 AUC0-∞, Mean): 0.954 ng·h/mL
- Cmax (Group B1 Period 2: EE2/NET followed by SYM-1219 2 grams on Day 1, read-out: EE2 Cmax, Geometric Least Squares (LS) Means): 0.0554 ng/mL
- Cmax (Group B1 Period 2: EE2/NET followed by SYM-1219 2 grams on Day 1, read-out: EE2 Cmax, Mean): 0.0599 ng/mL
- AUC(0-t) (Group B2 Period 1: EE2/NET alone, read-out: EE2 AUC0-t, Geometric Least Squares (LS) Means): 0.65 ng·h/mL
- AUC(0-t) (Group B2 Period 1: EE2/NET alone, read-out: EE2 AUC0-t, Mean): 0.68 ng·h/mL
- AUC(0-inf) (Group B2 Period 1: EE2/NET alone, read-out: EE2 AUC0-∞, Geometric Least Squares (LS) Means): 0.945 ng·h/mL
- AUC(0-inf) (Group B2 Period 1: EE2/NET alone, read-out: EE2 AUC0-∞, Mean): 0.995 ng·h/mL
- Cmax (Group B2 Period 1: EE2/NET alone, read-out: EE2 Cmax, Geometric Least Squares (LS) Means): 0.083 ng/mL
- Cmax (Group B2 Period 1: EE2/NET alone, read-out: EE2 Cmax, Mean): 0.0891 ng/mL
- AUC(0-t) (Group B2 Period 2: SYM-1219 2 grams on Day 1, EE2/NET on Day 2, read-out: EE2 AUC0-t, Geometric Least Squares (LS) Means): 0.644 ng·h/mL
- AUC(0-t) (Group B2 Period 2: SYM-1219 2 grams on Day 1, EE2/NET on Day 2, read-out: EE2 AUC0-t, Mean): 0.669 ng·h/mL
- AUC(0-inf) (Group B2 Period 2: SYM-1219 2 grams on Day 1, EE2/NET on Day 2, read-out: EE2 AUC0-∞, Geometric Least Squares (LS) Means): 0.882 ng·h/mL
- AUC(0-inf) (Group B2 Period 2: SYM-1219 2 grams on Day 1, EE2/NET on Day 2, read-out: EE2 AUC0-∞, Mean): 0.937 ng·h/mL
- Cmax (Group B2 Period 2: SYM-1219 2 grams on Day 1, EE2/NET on Day 2, read-out: EE2 Cmax, Geometric Least Squares (LS) Means): 0.0872 ng/mL
- Cmax (Group B2 Period 2: SYM-1219 2 grams on Day 1, EE2/NET on Day 2, read-out: EE2 Cmax, Mean): 0.0926 ng/mL
SMILES: C#C[C@]1(O)CC[C@H]2[C@@H]3CCc4cc(O)ccc4[C@H]3CC[C@@]21C [EE2, ethinyl estradiol]
